Test results published in ChEMBL document CHEMBL2311287, “Selective inhibition of extracellular thioredoxin by asymmetric disulfides” (J Med Chem, 2013).
Changes are numbered by the printed parent chain. One block for each molecule: values may come before it. Calls of active or inactive are those of the source. The rule behind the calls is not given here.

Key:
Thioredoxin = molecular target: T1, Thioredoxin (Homo sapiens, UniProt P10599); assay: Inhibition of human recombinant thioredoxin-mediated TG2 activation expressed in T84 cells assessed as blockade of 5-biotinamidopentylamine incorporation after 3 hrs by streptavidin-HRP/TMB absorbance assay
T1 sequence (P10599 whole entry): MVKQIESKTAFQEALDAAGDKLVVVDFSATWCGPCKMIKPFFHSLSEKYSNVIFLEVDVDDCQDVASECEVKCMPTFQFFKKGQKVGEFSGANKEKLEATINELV

[1] = test system: Transglutaminase 2 (Homo sapiens); assay: Inhibition of human recombinant thioredoxin-mediated TG2 activation expressed in T84 cells assessed as blockade of 5-biotinamidopentylamine incorporation at 25 uM after 3 hrs by fluorescence microscopic analysis
[2] = molecular target: T2, Thioredoxin (Homo sapiens) (UniProt P10599); assay: Inhibition of wild type human thioredoxin by insulin turbidity assay; details: concentration not given here
T2 sequence (whole entry): T1 sequence (P10599 whole entry)

[3] = test system: T3, Thioredoxin (Homo sapiens), P10599 [W31A]; assay: Inhibition of human thioredoxin W31A mutant
T3 sequence (whole entry): T1 sequence (P10599 whole entry) with W31A

IC50 (Thioredoxin): 2110 nM
Compound: CCC(C)SSc1ncc[nH]1 (centres undefined) [PX-12]

inhibition [1]: Active
Compound: O=C(NC[C@@H]1CC(Br)=NO1)[C@@H]1CCCN1C(=O)OCc1cnc2ccccc2c1

inhibition [2]: 78% | Ratio [3]: 1.42 µM⁻¹ min⁻¹
Compound: CCC(C)SSc1nc2ccccc2[nH]1 (centres undefined)
